Results: patent US20050014811A1, “Substituted benzimidazole compounds and their use for the treatment of cancer” (Aventis Pharma S.A., priority 2001, published 2005)

What was measured:
CDK4/CyclinD1 = CDK4/CyclinD1 (Homo sapiens, UniProt P11802); experiment: CDK4/CyclinD1 Flashplate assay, 96-well format, biotinylated-Rb peptide substrate; assay type: biochemical
Method in brief: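 Biotinylated Rb peptide bound to streptavidin Flashplate; CDK4/CyclinD1 (70 ng/well) preincubated 30 min on ice with compound at 10, 3, 1, 0.3 and 0.1 μM final. Reaction with 1 μM cold ATP plus 33P-ATP for 45 min at RT; incorporated 33P counted, duplicates.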

CDK2/CyclinE = CDK2/CyclinE (Homo sapiens, UniProt P24941); experiment: CDK2/CyclinE Flashplate assay, 96-well format, biotinylated-Rb peptide substrate; assay type: biochemical
Method in brief: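 Biotinylated Rb peptide was captured on streptavidin Flashplates, and CDK2/CyclinE (200 ng/well) was preincubated 30 min on ice with inhibitor at 10, 3, 1, 0.3 or 0.1 μM final. Reactions ran 45 min at RT with 1 μM ATP plus 1 μCi ^33P-ATP. After washing, incorporated ^33P was counted, in duplicate.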

CDK4/CyclinD1, sequence (P11802 whole entry, species assumed): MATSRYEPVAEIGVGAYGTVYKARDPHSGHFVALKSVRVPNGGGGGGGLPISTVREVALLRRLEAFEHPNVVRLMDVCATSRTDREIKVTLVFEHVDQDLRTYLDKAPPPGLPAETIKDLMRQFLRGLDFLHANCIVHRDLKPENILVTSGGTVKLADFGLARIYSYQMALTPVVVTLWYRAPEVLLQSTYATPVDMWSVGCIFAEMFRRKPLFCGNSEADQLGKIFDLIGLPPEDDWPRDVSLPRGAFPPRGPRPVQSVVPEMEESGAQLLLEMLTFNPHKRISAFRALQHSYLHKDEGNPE
CDK4/CyclinD1, sequence (P24385 whole entry partner, species assumed): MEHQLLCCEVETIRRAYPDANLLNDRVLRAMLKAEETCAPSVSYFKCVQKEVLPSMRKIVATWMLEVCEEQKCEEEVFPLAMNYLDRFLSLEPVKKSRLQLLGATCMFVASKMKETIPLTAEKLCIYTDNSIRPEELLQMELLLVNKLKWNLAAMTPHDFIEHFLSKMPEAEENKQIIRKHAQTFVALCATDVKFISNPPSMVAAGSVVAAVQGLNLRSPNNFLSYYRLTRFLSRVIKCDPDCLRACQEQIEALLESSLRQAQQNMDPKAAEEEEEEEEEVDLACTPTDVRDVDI

Row | SMILES | IC50 (CDK4/CyclinD1) | IC50 (CDK2/CyclinE)
1 | O=C(NCCCO)Nc1nc2cc(OS(=O)(=O)c3ccc(NC4CCCC4)cc3)ccc2[nH]1 [Example 58-y, 4-Cyclopentylamino-benzenesulfonic acid 2-[3-(3-hydroxy-propyl)-ureido]-1H-benzoimidazol-5-yl ester] | 270 nM | 10 nM
2 | NC(=O)CNC(=O)Nc1nc2cc(OS(=O)(=O)c3ccc(NCC4CCCO4)cc3)ccc2[nH]1 (stereo not shown) [Example 59-a, 4-[(Tetrahydro-furan-2-ylmethyl)-amino]-benzenesulfonic acid 2-(3-carbamoylmethyl-ureido)-1H-benzoimidazol-5-yl ester] | 100 nM | 8 nM
3 | O=C(NCCO)Nc1nc2cc(OS(=O)(=O)c3ccc(NCC4CCCO4)cc3)ccc2[nH]1 (stereo not shown) [Example 59-b, 4-[(Tetrahydro-furan-2-ylmethyl)-amino]-benzenesulfonic acid 2-[3-(2-hydroxy-ethyl)-ureido]-1H-benzoimidazol-5-yl ester] | 300 nM | 7 nM
4 | O=C(NCCCO)Nc1nc2cc(OS(=O)(=O)c3ccc(NCC4CCCO4)cc3)ccc2[nH]1 (stereo not shown) [Example 59-c, 4-[(Tetrahydro-furan-2-ylmethyl)-amino]-benzenesulfonic acid 2-[3-(3-hydroxy-propyl)-ureido]-1H-benzoimidazol-5-yl ester] | 1000 nM | 7 nM
5 | O=C(NCCCCO)Nc1nc2cc(OS(=O)(=O)c3ccc(NCC4CCCO4)cc3)ccc2[nH]1 (stereo not shown) [Example 59-d, 4-[(Tetrahydro-furan-2-ylmethyl)-amino]-benzenesulfonic acid 2-[3-(4-hydroxy-butyl)-ureido]-1H-benzoimidazol-5-yl ester] | 500 nM | 15 nM
6 | COCC(C)NC(=O)Nc1nc2cc(OS(=O)(=O)c3ccc(NCC4CCCO4)cc3)ccc2[nH]1 (stereo not shown) [Example 59-e, 4-[(Tetrahydro-furan-2-ylmethyl)-amino]-benzenesulfonic acid 2-[3-(2-methoxy-1-methyl-ethyl)-ureido]-1H-benzoimidazol-5-yl ester] | 1600 nM | 100 nM
7 | CCN1CCCC1CNC(=O)Nc1nc2cc(OS(=O)(=O)c3ccc(NCC4CCCO4)cc3)ccc2[nH]1 (stereo not shown) [Example 59-f, 4-[(Tetrahydro-furan-2-ylmethyl)-amino]-benzenesulfonic acid 2-[3-(1-ethyl-pyrrolidin-2-ylmethyl)-ureido]-1H-benzoimidazol-5-yl ester] | 1800 nM | 60 nM
8 | O=C(NCCN1CCCC1)Nc1nc2cc(OS(=O)(=O)c3ccc(NCC4CCCO4)cc3)ccc2[nH]1 (stereo not shown) [Example 59-g, 4-[(Tetrahydro-furan-2-ylmethyl)-amino]-benzenesulfonic acid 2-[3-(2-pyrrolidin-1-yl-ethyl)-ureido]-1H-benzoimidazol-5-yl ester] | 1800 nM | 200 nM
9 | O=C(NCCCN1CCCC1)Nc1nc2cc(OS(=O)(=O)c3ccc(NCC4CCCO4)cc3)ccc2[nH]1 (stereo not shown) [Example 59-h, 4-[(Tetrahydro-furan-2-ylmethyl)-amino]-benzenesulfonic acid 2-[3-(3-pyrrolidin-1-yl-propyl)-ureido]-1H-benzoimidazol-5-yl ester] | 1100 nM | 200 nM
10 | O=C(NCCN1CCOCC1)Nc1nc2cc(OS(=O)(=O)c3ccc(NCC4CCCO4)cc3)ccc2[nH]1 (stereo not shown) [Example 59-i, 4-[(Tetrahydro-furan-2-ylmethyl)-amino]-benzenesulfonic acid 2-[3-(2-morpholin-4-yl-ethyl)-ureido]-1H-benzoimidazol-5-yl ester] | 1200 nM | 40 nM
11 | CCNC(=O)Nc1nc2cc(OS(=O)(=O)c3ccc(NCC4CCCO4)cc3)ccc2[nH]1 (stereo not shown) [Example 59-j, 4-[(Tetrahydro-furan-2-ylmethyl)-amino]-benzenesulfonic acid 2-(3-ethyl-ureido)-1H-benzoimidazol-5-yl ester] | 900 nM | 7 nM
